In patent US20250171434A1, “SEC61 INHIBITORS AND USE THEREOF” (KEZAR LIFE SCIENCES, INC., priority 2022, published 2025):

Key:
[1] = Liver Microsome Stability Assay, rat; type: in vitro ADME; conditions: rat liver microsomes 1.0 mg/mL, 1.0 uM compound, 37° C., 1 mM NADPH
How it was run: (§1)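 1.0 uM cpd, 0.4% DMSO, 1.0 mg/mL microsomes, 0.1 M KPi, 37° C, ±1 mM NADPH; quench 0 and 30 min.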

[2] = system: multiple myeloma cell line NCI-H929; assay: H929 Cell Viability Assay; type: cell-based, human; conditions: Homo sapiens; NCI-H929 cells, 48 hours, Celltiter-Glo; read-out: 48 hr H929 Viability Celltiter-Glo: Mean EC50
How it was run: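 Cells in RPMI 1640/10% FBS; compound dilutions in DMSO/media; 48 h, 37° C, 5% CO2; CellTiter-Glo luciferase readout for viability.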

[3] = Liver Microsome Stability Assay, mouse; type: in vitro ADME; conditions: mouse liver microsomes 1.0 mg/mL, 1.0 uM compound, 37° C., 1 mM NADPH
How it was run: as §1

CD47(ss + 10)Gluc = assay: Dox-Induced CD47-ss-Gluc Assay; type: cell-based; conditions: Flp-In 293 T-REx cells, 24 hours with doxycycline; Table 1; read-out: 24 hr Dox Inducible CD47(ss + 10)Gluc 293FRT/TO: Mean IC50
[4] = system: PD1-ss+10aa/Gaussia Luciferase; assay: Dox-Induced PD1-ss-Gluc Assay; type: cell-based; conditions: Flp-In 293 T-REx cells, 24 hours with doxycycline; Table 1; read-out: 24 hr Dox Inducible PD1ssGluc 293FRT/TO: Mean IC50
How it was run: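 Doxycycline-induced expression of a PD1-ss+10aa/Gaussia luciferase reporter is measured in stable Flp-In 293 T-REx cells. Compound dilutions containing doxycycline are added one day after plating and incubated at 37 °C, 5% CO2. Values for unassigned stereocentres refer to stereoisomer mixtures.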

[5] = system: IL6R-ss+10aa/Gaussia Luciferase; assay: Dox-induced IL-6R-ss-Gluc Assay; type: cell-based; conditions: Table 1; for IC50: Flp-In 293 T-REx cells, 24 hours with doxycycline, read-out: 24hr Dox Inducible IL6R(ss + 10)Gluc 293FRT/TO: Mean IC50; for 24hr Dox Inducible IL6R(ss + 10)Gluc 293FRT/TO: IL6R/PD1: ratio of IC50s IL6R/PD1
How it was run: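 Flp-In 293 T-REx cells stably carrying a doxycycline-inducible IL6R signal sequence+10 aa fused to Gaussia luciferase. Cells plated the day before; compound dilutions added in DMSO/media containing doxycycline and incubated at 37 °C, 5% CO2.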

[6] = Liver Microsome Stability Assay, monkey; type: in vitro ADME; conditions: monkey liver microsomes 1.0 mg/mL, 1.0 uM compound, 37° C., 1 mM NADPH
How it was run: as §1

[7] = system: multiple myeloma cell line U266B1; assay: U266 Cell Viability Assay; type: cell-based; conditions: Homo sapiens, U-266; U266B1 cells, 48 hours, Celltiter-Glo; read-out: 48 hr U266 Viability Celltiter-Glo: Mean EC50
How it was run: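 Luminescent ATP read-out (CellTiter-Glo) after 48 h compound exposure at 37° C., 5% CO2; cells maintained in RPMI 1640/10% FBS/2 mM glutamine/pen-strep, compounds diluted in DMSO/media.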

[8] = system: IL-2-FL/Gaussia Luciferase; assay: Dox Inducible IL2-FL-Gluc Assay; type: cell-based; conditions: Table 1; for IC50: Flp-In 293 T-REx cells, 24 hours with doxycycline, read-out: 24 hr Dox Inducible IL2FLGluc 293FRT/TO: Mean IC50; for 24 hr Dox Inducible IL2FLGluc 293FRT/TO: IL2/PD1: ratio of IC50s IL2/PD1
How it was run: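 Stable Flp-In 293 T-REx line, Tet-regulated IL-2 (aa 1-153)–Gaussia luciferase fusion; hygromycin/blasticidin selected. Plated day -1; compound + doxycycline added next day; 37° C, 5% CO2.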

[9] = Liver Microsome Stability Assay, human; type: in vitro ADME; conditions: human liver microsomes 1.0 mg/mL, 1.0 uM compound, 37° C., 1 mM NADPH
How it was run: as §1

Compound	Liver Microsome Stability (Multiple Species): Rat - % Remaining after 30 min w/ NADPH (%) [1] [%]	EC50 [2] [µM]	Liver Microsome Stability (Multiple Species): Mouse - % Remaining after 30 min w/ NADPH (%) [3] [%]	IC50 (CD47(ss + 10)Gluc) [µM]	IC50 [4] [µM]	IC50 [5] [µM]	24hr Dox Inducible IL6R(ss + 10)Gluc 293FRT/TO: IL6R/PD1 [5]	Liver Microsome Stability (Multiple Species): Monkey - % Remaining after 30 min w/ NADPH (%) [6] [%]	EC50 [7] [µM]	IC50 [8] [µM]	24 hr Dox Inducible IL2FLGluc 293FRT/TO: IL2/PD1 [8]	Liver Microsome Stability (Multiple Species): Human - % Remaining after 30 min w/ NADPH (%) [9] [%]
O=C(Nc1nc(/C=C/c2ncn(C3CC3)c2Cl)cs1)c1cc(O)cn1Cc1ccnc(F)c1 [Compound A18, (E)-N-(4-(2-(5-chloro-1-cyclopropyl-1H-imidazol-4-yl)vinyl)thiazol-2-yl)-1-((2-fluoropyridin-4-yl)methyl)-4-hydroxy-1H-pyrrole-2-carboxamide]	10	24.7	33	6.41	0.295	5.53	19	2	> 25	7	24	1
O=C(Nc1nc(/C=C/c2ncn(C3CC3)c2Cl)cs1)c1cc(OCF)cn1Cc1ccnc(F)c1 [Compound A19, (E)-N-(4-(2-(5-chloro-1-cyclopropyl-1H-imidazol-4-yl)vinyl)thiazol-2-yl)-4-(fluoromethoxy)-1-((2-fluoropyridin-4-yl)methyl)-1H-pyrrole-2-carboxamide]	23	> 25	65	4.35	0.01	2.91	287	51	> 25	3.66	360	4
COc1cc(C(=O)Nc2nc(/C=C/c3ncn(C4CC4)c3Cl)cs2)n(Cc2ccnc(F)c2F)c1 [Compound A20]	41	> 25	74	5.01	0.031	3.76	123	28	> 25	> 25	>810	52
COc1cc(C(=O)Nc2nc(/C=C/c3ncn(C(C)C)c3Cl)c(CO)s2)n(Cc2ccnc(F)c2F)c1 [Compound A21]	59	> 25	51	5.87	0.238	> 25	>105	<1	> 25	> 25	>110	1
[2H]C([2H])([2H])Oc1cc(C(=O)Nc2nc(/C=C/c3ncn(C4CC4)c3Cl)cs2)n(Cc2ccnc(F)c2F)c1 [Compound A22, (E)-N-(4-(2-(5-chloro-1-cyclopropyl-1H-imidazol-4-yl)vinyl)thiazol-2-yl)-1-((2,3-difluoropyridin-4-yl)methyl)-4-(methoxy-d3)-1H-pyrrole-2-carboxamide]	33	> 25	69	5.53	0.034	> 25	>741	9	> 25	> 25	>740	16
Cc1c(Cn2cc(OC(F)F)cc2C(=O)Nc2nc(/C=C/c3ncn(C4CC4)c3Cl)cs2)ccnc1F [Compound A23, (E)-N-(4-(2-(5-chloro-1-cyclopropyl-1H-imidazol-4-yl)vinyl)thiazol-2-yl)-4-(difluoromethoxy)-1-((2-fluoro-3-methylpyridin-4-yl)methyl)-1H-pyrrole-2-carboxamide]	31	> 25	55	> 25	0.037	> 25	>680	8	> 25	> 25	>540	20
Cc1cnc(F)cc1Cn1cc(OC(F)F)cc1C(=O)Nc1nc(/C=C/c2ncn(C3CC3)c2Cl)cs1 [Compound A24, (E)-N-(4-(2-(5-chloro-1-cyclopropyl-1H-imidazol-4-yl)vinyl)thiazol-2-yl)-4-(difluoromethoxy)-1-((2-fluoro-5-methylpyridin-4-yl)methyl)-1H-pyrrole-2-carboxamide]	30	> 25	77	5.53	0.008	9.97	1283	12	> 25	11.5	1100.0	20
Cc1cnc(F)c(C)c1Cn1cc(OC(F)F)cc1C(=O)Nc1nc(/C=C/c2ncn(C3CC3)c2Cl)cs1 [Compound A26, (E)-N-(4-(2-(5-chloro-1-cyclopropyl-1H-imidazol-4-yl)vinyl)thiazol-2-yl)-4-(difluoromethoxy)-1-((2-fluoro-3,5-dimethylpyridin-4-yl)methyl)-1H-pyrrole-2-carboxamide]	40	> 25	70	> 25	0.877	> 25	28	16	> 25	> 25	>22	29
